Entries after “also recorded” stand apart in the source; their conditions may differ. Read-outs that look alike come from different tables or passages of the source.
Key:
wheat seedlings = assay: Transpiration in wheat seedlings; type: in vivo, Triticum aestivum L. cv Katepwa; conditions: for reduction in transpiration: (+)-forms of methyl esters, 100 μM, 3 hours (FIG. 8); for EC50: Triticum aestivum, 3 h, intact wheat seedlings, three hours after application, read-out: concentration to reduce the transpiration rate to 50% (TR50); for reduction of transpiration (summary in words): in vivo
Excerpt: ABA is a key signal molecule involved in regulating transpiration in plants (W. J. Davies T. A. Mansfield 1988 Abscisic acid and drought resistance in plants ISI Atlas of Science: Animal and Plant Sciences 0894-3761 p. 263-269). […] This difference in activity is shown in FIG. 4 in which the % transpiration effected by the (+)-forms of methyl esters of ABA (214) , 8'-methyl (370) and 8'-methylene ABA (357) are compared. The structures are as follows: [drawing 13] Seed Germination
The transpiration rate of 6 to 10 day old wheat seedlings (Triticum aestivum L. cv Katepwa) was measured as previously described (Rose et al.^7, 1996 incorporated herein by reference). Antitranspirant activity of the analogs (prepared as a 1% ethanol solution in water) was measured over a range of concentrations to determine the concentration where the transpiration rate of the wheat seedling is reduced by 50%. The transpiration rate (μMol H2 O/cm^2 s) was calculated and then given as a percentage of the initial transpiration rate of the plant (typically 0.28-0.35 μMol H2 O/cm^2 s), corrected for the effect of the control (1% ethanol).
ABA is a key signal molecule involved in regulating transpiration in plants. We had previously determined that esters were as active as acids in this assay (data not shown) so the effect of the methyl esters of natural ABA (+)-^8 '-methylene ABA and 8'-methyl ABA on transpiration in intact wheat seedlings was compared three hours after application. […] The difference in responses may be due to reduced uptake of the 8'-methyl ABA in the intact wheat seedling.

[1] = test system: suspension-cultured corn cells (var. Black Mexican Sweet); assay: Growth inhibition of suspension-cultured corn cells; type: cell-based, corn (maize)
cress seed = assay: Cress seed germination inhibition; type: in vivo; conditions: 5 μM (printed 5 M)
Procedure: The experimental conditions were as follows: 100 seeds are placed on a 9 cm Whatman no. 1 filter paper in a petri dish and treated with 5 ml of solution.
The final concentration of the ethanol in the assay solutions was <0.05%. Assays were conducted with 100 seeds in each Petri dish and performed in triplicate. The germination measurements were based on the growth of the primary root. A seed was considered germinated when the radical was approximately the same length as the seed.

corn cells = assay: Depletion (persistence) from corn cell culture media; type: in vitro ADME, corn (maize); conditions: initial 100 μM, corn cell culture (FIG. 10)
Procedure: Ethanolic stock solutions of (+)-ABA, (+)-8'-methylene ABA and (+)-8'-methyl ABA were added to flasks containing 0.2 g of corn cells and 10 ml of culture medium to obtain a final concentration of 100 μM of hormone or analog. Aliquots of medium (100 μl) were removed at intervals and analyzed for ABA or ABA analog content by HPLC as described previously (Balsevich et al.^6, 1994). Each compound was inoculated into 3 flasks and duplicate samples were removed at the indicated time points. The corn cells were used 1 or 2 days after subculturing.

[2] = test system: ABA-responsive cor6.6 promoter; assay: ABA-inducible gene expression (GUS activity) in transgenic tobacco seedlings containing Pcor6.6-GUS; type: in vivo, transgenic tobacco (promoter from Arabidopsis thaliana); conditions: 200 micromolar, 24 hours, relative to untreated control
Excerpt: The results shown are an average of duplicate assays on samples containing 34 seedlings.
The results shown are an average of duplicate samples containing cotyledons from 34 seedlings.

[3] = test system: suspension-cultured corn cells; conditions: Balsevich et al 1994, cited from earlier work
excised wheat embryos [4] = conditions: Walker-Simmons et al., 1992, cited from earlier work
[5] = test system: suspension-cultured corn cells (var. Black Mexican Sweet); conditions: Balsevich et al 1994, cited from earlier work
excised wheat embryos [6] = assay: Wheat embryo germination inhibition; type: in vivo, Triticum aestivum L. cv. Clark's Cream; conditions: (+)-8'-methylene ABA versus (+)-ABA (FIG. 12)
Procedure: Grains of soft white wheat (Triticum aestivum L. cv. Clark's Cream) were used. For bioassay, embryos with some adhering endosperm and pericarp attached were cut from the grains with a razor blade. Analogs were prepared by dissolving into a minimal amount of DMSO to prepare a 0.1 M solution, and then diluted with […], pH 5.8, to 0.01, 0.1, 1, 10 and 100 μM. For each analog concentration six replicate germination assays were conducted on 10 embryos each at 30° C. Embryos were incubated in Petri dishes (100×15 mm) containing 6 ml solution.

C=CC1(C)CC(=O)C=C(C)C1(O)/C=C/C(C)=C\C(=O)OC (single isomer, unassigned; (+)) [(+)-9'-ethylene methyl ABA]
reduction in transpiration (wheat seedlings): Equivalent high activity

C#CC1(C)CC(=O)C=C(C)C1(O)C=CC(C)=CC(=O)O (centres unmarked) [8'-acetylene ABA]
growth inhibition activity (comparison in words) ([1]; four days): more potent than ABA

CC1=CC(=O)CC(C)(C)[C@@]1(O)/C=C/C(C)=C\C(=O)O [(+)-ABA, abscisic acid]
germination of cress seed (cress seed): begins to germinate | time by which 50% had disappeared from the medium (corn cells): ≤ 24 h | induction of GUS activity [2]: strongly induced GUS activity | inhibition at 0.33 µM ([1]; Zea mays, 96 h, 0.33 μM, four day period, read-out: growth inhibition relative to the control): 17% | IC50 ([1]; Zea mays, 96 h, four days after addition, read-out: concentration required for 50% inhibition of growth): ~10 µM | shift (elevation) in pH of the medium (literature) ([3]; listed as Natural ABA): causes a transient elevation of pH of the corn cell culture medium; also recorded: causes a shift in the pH of the medium of cultured corn cells | time of maximum of transient elevation of medium pH ([3]; after ABA addition): about 6 h | germination inhibitory activity, wheat embryos (literature) (excised wheat embryos [4]): equally effective in inhibiting germination | germination inhibitory activity, wheat embryos (literature) (excised wheat embryos [4]; listed as ABA): both enantiomers of ABA were equally effective | growth inhibition (literature) [5]: inhibits growth of maize suspension-cultured cells over a four day period | growth inhibition (literature) ([5]; listed as Natural ABA): causes growth inhibition | concentration giving equivalent germination inhibition (excised wheat embryos [6]): 10 µM

CC1=CC(=O)CC(C)(C)[C@]1(O)/C=C/C(C)=C\C(=O)O [(-)-ABA]
shift (elevation) in pH of the medium (literature) [3]: only weakly | germination inhibitory activity, wheat embryos (literature) (excised wheat embryos [4]): equally effective in inhibiting germination

COC(=O)/C=C(C)\C=C\[C@@]1(O)C(C)=CC(=O)CC1(C)C [compound 214]
reduction in transpiration (wheat seedlings): Equivalent high activity | EC50 (wheat seedlings; methyl ester, unit M): 25 to 50 µM

C=C[C@@]1(C)CC(=O)C=C(C)[C@]1(O)/C=C/C(C)=C\C(=O)OC [compound 357, (+) Methyl 8'-methyleneabscisate]
EC50 (wheat seedlings; methyl esters): 5 to 10 µM | reduction of transpiration (summary in words) (wheat seedlings): most active analog

CC[C@@]1(C)CC(=O)C=C(C)[C@]1(O)/C=C/C(C)=C\C(=O)OC [compound 370]
EC50 (wheat seedlings; methyl esters): 100 µM | reduction of transpiration (summary in words) (wheat seedlings): relatively weak in this assay | % transpiration effect (comparison in words) (wheat seedlings; methyl esters, (+)-forms, 10 μM, 3 hours (FIG. 4)): not as active as the vinyl analog

Reference: patent US6004905A, “Hyperabas: biologically active abscisic acid analogs with unsaturated carbon substituents at the 8'-methyl or 9'-methyl carbon atoms” (National Research Council of Canada, priority 1998, dated 1999)
